Laboratory results taken from patent US4894340A, “Microbial sulfhydryl oxidase and method” (priority 1987, dated 1990).
Like-named read-outs stand apart in the source and are kept apart here. Values belong to the molecule of their own block, whether it stands above or below them.

How the values were obtained:
[1] = tested on: A. niger sulfhydryl oxidase; test: Sulfhydryl oxidase activity in presence of chelating agents; assay type: biochemical, Aspergillus niger; settings: 1 mM chelating agent in 0.05M phosphate buffer, pH 7.0, even after overnight incubation
Excerpt: Since flavin oxidases containing essential metal ions are known to exist, sulfhydryl oxidase was examined for changes in activity upon treatment with the chelating agents.

[2] = tested on: A. niger sulfhydryl oxidase; test: Polarographic O2 depletion assay of sulfhydryl oxidase with thiol compounds and substrates of other oxidases; assay type: biochemical, Aspergillus niger; settings: for kcat (app)/Km (app) (head is drawing 1) / kcat (app) / Km: purified enzyme, polarographic assay; for kcat (app) / Km: double reciprocal plot; for Km: read-out: Km (app); for Activity toward substrates of other known oxidases: test compound 10 mM in 40 mM sodium acetate at pH 5.5
Method: Two assays have been employed to determine SHX activity. The first assay is based on the depletion of O2 from assay mixtures containing thiol compounds; oxygen depletion is measured polarographically by oxygen electrode techniques. One unit of SHX is defined as that amount of enzyme which would utilize or consume 1 umol of O2 per minute under the conditions of the assay.
Rates of O2 depletion by the purified enzyme were measured at selected concentrations of GSH, cysteine, dithiothreitol and 2-mercapto-ethanol. […] Kinetic constants were calculated from the double reciprocal plot by linear regression fitting of the data points.
The enzyme was tested for activity toward substrates of other known oxidases, including D-glucose, D-fructose, L-lysine, D-lysine, benzylamine, xanthine, putrescine, catechol, nicotinamide adenine dinucleotide (reduced) ("NADH") and nicotinamide adenine dinucleotide phosphate (reduced) ("NADPH").
In a typical assay, 2.9 mL of a mixture consisting of a thiol compound in an appropriate buffer was equilibrated with stirring to 25° C. After the vial was sealed with the electrode, a volume of 0.1 mL of enzyme solution was injected into the assay mixture. […] One unit of sulfhydryl oxidase was defined as that amount of enzyme which would deplete 1 umole of O2 per minute under the conditions of the assay. Unless otherwise indicated, the assay mixture contained 8 mM GSH in 40 mM acetate buffer, pH 5.5, at 25° C.

[3] = tested on: A. niger sulfhydryl oxidase; test: NAD/NADP as electron acceptors, absorbance at 340 nm; assay type: biochemical, Aspergillus niger; settings: in the presence of sulfhydryl oxidase and 4 mM GSH
[4] = biological target: A. niger sulfhydryl oxidase; test: Spectral titration with sodium sulfite (flavin-sulfite complex); assay type: binding, Aspergillus niger; settings: read-out: Dissociation constant Kd of flavin-sulfite complex
Method: FIG. 3: Absorption spectra of purified sulfhydryl oxidase after reaction with sodium sulfite at pH 6, showing bleaching of the visible bond of SHX spectrum. Each spectrum was recorded 10 minutes after the addition of a small aliquot of sodium sulfite to a cuvette containing 1.8 mg/mL SHX in 50 mM sodium phosphate. Sulfite concentrations after each addition were 0 mM(1), 0.99 mM(2), 2.44 mM(3) and 152 mM(4).
Additional spectral analysis confirms that the SHX of the present invention is a flavoprotein. Most flavin oxidases, but not flavin dehydrogenases, react with sodium sulfite to form a bleached flavin-sulfite complex (Massey et al., 1969). The spectral change incurred by incubation of sulfhydryl oxidase with sodium sulfite at varying concentrations is show in FIG. 3. The dissociation constant Kd =[SHX][SO2 ]/[SHX-SO2 ]for the sulfhydryl oxidase flavin-sulfite complex was calculated from the first few spectra under the assumption that spectrum 4 in FIG. 3 represented full conversion of the enzyme to the sulfite complex, and that the initial excess of sulfite was so large that its concentration was essentially unchanged at equilibrium. The first assumption was justified by the fact that spectrum 4 (152.8 mM sulfite) was identical with the spectrum recorded when the sulfite concentration was just 42.8 mM (not shown).

[5] = biological target: T1, flavin sulfhydryl oxidase from rat epididymal fluid (Rattus norvegicus, UniProt Q6IUU3); settings: concentrations as high as 0.1M; cited from earlier work
T1 construct: flavin sulfhydryl oxidase from rat epididymal fluid; host or cells: rat epididymal fluid as printed
T1 sequence (Q6IUU3 33-750): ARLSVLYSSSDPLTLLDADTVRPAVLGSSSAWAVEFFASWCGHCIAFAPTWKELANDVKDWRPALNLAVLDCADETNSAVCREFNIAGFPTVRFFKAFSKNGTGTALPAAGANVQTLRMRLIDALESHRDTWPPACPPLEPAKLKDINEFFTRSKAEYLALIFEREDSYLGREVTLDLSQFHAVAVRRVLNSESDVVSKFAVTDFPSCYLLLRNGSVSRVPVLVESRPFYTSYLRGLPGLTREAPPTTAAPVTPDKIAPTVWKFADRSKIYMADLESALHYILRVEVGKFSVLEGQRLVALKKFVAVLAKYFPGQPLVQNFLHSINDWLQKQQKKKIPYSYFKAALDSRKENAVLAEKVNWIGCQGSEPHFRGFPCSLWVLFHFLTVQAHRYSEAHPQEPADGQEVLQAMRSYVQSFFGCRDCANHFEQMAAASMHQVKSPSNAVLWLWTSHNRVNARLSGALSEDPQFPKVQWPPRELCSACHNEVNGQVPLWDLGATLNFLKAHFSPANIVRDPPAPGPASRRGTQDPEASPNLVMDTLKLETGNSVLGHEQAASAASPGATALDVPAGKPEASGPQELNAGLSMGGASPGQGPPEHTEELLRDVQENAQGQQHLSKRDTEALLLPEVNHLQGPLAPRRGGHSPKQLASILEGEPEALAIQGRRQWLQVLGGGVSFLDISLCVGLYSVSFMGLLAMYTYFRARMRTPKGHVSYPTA

sulfhydryl apooxidase = test: Reactivation of sulfhydryl apooxidase by resolved flavins or standards; assay type: biochemical, Aspergillus niger; settings: for Activity: apooxidase after 14 hours incubation at 0° C. with resolved flavins or standards
Excerpt: At […], FAD is weakly fluorescent owing to quenching by its adenine moiety. FMN and other nonadenylated flavins, on the other hand, fluoresce strongly under both conditions of pH (Bessey et al., 1949); Cerletti and Siliprandi, 1958). Thus the ratio of fluorescence at basic pH to that at acidic pH distinguishes adenylated from nonadenylated flavins. […] When the isolated flavins were recombined with sulfhydryl apooxidase, only the product of treatment by boiling was capable of restoring activity to the enzyme.
Determination of sulfhydryl oxidase activity was based upon depletion of O2 from assay mixtures containing thiol compounds, as measured with a Yellow Springs Instruments oxygen monitor (model 500) equipped with a polarographic Clark-type electrodes. In a typical assay, 2.9 mL of a mixture consisting of a thiol compound in an appropriate buffer was equilibrated with stirring to 25° C. After the vial was sealed with the electrode, a volume of 0.1 mL of enzyme solution was injected into the assay mixture. The rate of oxygen depletion was constant during the first 30 seconds of the assay; thus, the initial rate of O2 depletion was taken to be sulfhydryl oxidase activity under the prevailing conditions. One unit of sulfhydryl oxidase was defined as that amount of enzyme which would deplete 1 umole of O2 per minute under the conditions of the assay. Unless otherwise indicated, the assay mixture contained 8 mM GSH in 40 mM acetate buffer, pH 5.5, at 25° C.
In reactivation experiments, freshly prepared apoenzyme was combined with flavin solution and 0.1M sodium phosphate buffer, pH 7.0, in the volume proportions 1:1:2. This mixture was incubated for 14 to 16 hours at 0° C. After the incubation period, the enzyme was separated from excess free flavin by passage through a Pharmacia PD-10 column equilibrated and eluted with 40 mM acetate buffer, pH 5.5.
The flavin component was also extracted from the enzyme by two other methods. Dialyzed sulfhydryl oxidase was boiled for 5 minutes with protection from light and cooled quickly by immersion in ice water. […]

SMILES: Oc1cccc2cccnc12 [8-hydroxyquinoline]
Change in sulfhydryl oxidase activity [1]: No activity decreases

kcat (app)/Km (app) (head is drawing 1) [2]: 230 min^-1 M^- 1
kcat (app) [2]: 166.2 s⁻¹
Km [2]: 43 mM
SMILES: N[C@@H](CS)C(=O)O [Cysteine]

SMILES: NC(=O)c1ccc[n+]([C@@H]2O[C@H](COP(=O)([O-])OP(=O)(O)OC[C@H]3O[C@@H](n4cnc5c(N)ncnc54)[C@H](OP(=O)(O)O)[C@@H]3O)[C@@H](O)[C@H]2O)c1 [NADP]
Electron acceptor, increase in absorbance at 340 nm [3]: did not act as electron acceptors

Activity toward substrates of other known oxidases [2]: failed to stimulate
SMILES: NCCCCN [putrescine]

SMILES: NCCCC[C@H](N)C(=O)O [L-lysine]
Activity toward substrates of other known oxidases [2]: failed to stimulate

SMILES: O=c1[nH]c(=O)c2[nH]cnc2[nH]1 [xanthine]
Activity toward substrates of other known oxidases [2]: failed to stimulate

kcat (app)/Km (app) (head is drawing 1) [2]: 110 min^-1 M^- 1
kcat (app) [2]: 119 s⁻¹
Km [2]: 66 mM
SMILES: O[C@H](CS)[C@H](O)CS (racemic) [Dithiothreitol]

kcat (app)/Km (app) (head is drawing 1) [2]: 26,000 min^-1 M^- 1
kcat (app) [2]: 131.2 s⁻¹
Km [2]: 0.3 mM
SMILES: N[C@@H](CCC(=O)N[C@@H](CS)C(=O)NCC(=O)O)C(=O)O [Glutathione]

SMILES: O=S([O-])[O-].[Na+].[Na+] [sodium sulfite]
Kd ([4]; from spectrum 1 of FIG. 3, pH 6, 50 mM sodium phosphate): 3040 µM
Kd ([4]; from spectrum 2 of FIG. 3, pH 6, 50 mM sodium phosphate): 2950 µM
Reaction with sulfite (changes in visible spectrum) [5]: failed to react

Activity toward substrates of other known oxidases [2]: failed to stimulate
SMILES: O=C(CO)[C@@H](O)[C@H](O)[C@H](O)CO [D-fructose]

SMILES: NC(=O)C1=CN([C@@H]2O[C@H](COP(=O)(O)OP(=O)(O)OC[C@H]3O[C@@H](n4cnc5c(N)ncnc54)[C@H](O)[C@@H]3O)[C@@H](O)[C@H]2O)C=CC1 [NADH, nicotinamide adenine dinucleotide (reduced)]
Activity toward substrates of other known oxidases [2]: failed to stimulate

Activity toward substrates of other known oxidases [2]: failed to stimulate
SMILES: OC[C@H]1OC(O)[C@H](O)[C@@H](O)[C@@H]1O (stereo partly drawn) [D-glucose]

SMILES: NC(=O)c1ccc[n+]([C@@H]2O[C@H](COP(=O)([O-])OP(=O)(O)OC[C@H]3O[C@@H](n4cnc5c(N)ncnc54)[C@H](O)[C@@H]3O)[C@@H](O)[C@H]2O)c1 [NAD]
Electron acceptor, increase in absorbance at 340 nm [3]: did not act as electron acceptors

SMILES: NC(=O)C1=CN([C@@H]2O[C@H](COP(=O)(O)OP(=O)(O)OC[C@H]3O[C@@H](n4cnc5c(N)ncnc54)[C@H](OP(=O)(O)O)[C@@H]3O)[C@@H](O)[C@H]2O)C=CC1 [NADPH, nicotinamide adenine dinucleotide phosphate (reduced)]
Activity toward substrates of other known oxidases [2]: failed to stimulate

SMILES: Cc1cc2nc3c(=O)[nH]c(=O)nc-3n(C[C@H](O)[C@H](O)[C@H](O)COP(=O)(O)O)c2cc1C [Authentic FMN, flavin mononucleotide]
Activity (sulfhydryl apooxidase): 0.0 units/mL
Restoration of apooxidase activity toward GSH (sulfhydryl apooxidase; excess FMN, pH 3 to 9, various buffer salts): did not result in any detectable restoration of activity

SMILES: NCCCC[C@@H](N)C(=O)O [D-lysine]
Activity toward substrates of other known oxidases [2]: failed to stimulate

Activity toward substrates of other known oxidases [2]: failed to stimulate
SMILES: NCc1ccccc1 [benzylamine]

SMILES: Oc1ccccc1O [catechol]
Activity toward substrates of other known oxidases [2]: failed to stimulate

SMILES: Cc1cc2nc3c(=O)[nH]c(=O)nc-3n(C[C@H](O)[C@H](O)[C@H](O)COP(=O)(O)OP(=O)(O)OC[C@H]3O[C@@H](n4cnc5c(N)ncnc54)[C@H](O)[C@@H]3O)c2cc1C [Authentic FAD, flavin adenine dinucleotide]
Activity (sulfhydryl apooxidase): 0.58 units/mL

SMILES: c1cnc2c(c1)ccc1cccnc12 [o-phenanthroline]
Change in sulfhydryl oxidase activity [1]: No activity decreases

kcat (app)/Km (app) (head is drawing 1) [2]: 26 min^-1 M^- 1
kcat (app) [2]: 145.2 s⁻¹
SMILES: OCCS [2-Mercaptoethanol]
